This note sets out measurements from patent publication US10092620B2, “Uses of cyclic peptides for treating and preventing atherosclerosis” (THE SCRIPPS RESEARCH INSTITUTE, priority 2013, dated 2018).

Non-standard residues stand in square brackets, D forms with d. Residues, ends and D or L forms follow the SMILES beside them. 1Nal = N[C@@H](Cc1cccc2ccccc12)C(=O)O; 2Nal = N[C@@H](Cc1ccc2ccccc2c1)C(=O)O; d3Pal = N[C@H](Cc1cccnc1)C(=O)O; Aoc(2) = CCCCCC[C@H](N)C(=O)O; Orn = NCCC[C@H](N)C(=O)O; Dap = NC[C@H](N)C(=O)O

One data set concerns HDL in human plasma. As to the kind of experiment: pre-beta HDL ELISA assay: remodeling HDL in human plasma in vitro. It counts as biochemical. Conditions: pre-beta HDL ELISA. The protocol: First, various cyclic peptides, including the majority of compounds shown in FIG. 2, were assessed for activities for remodeling HDL in human plasma in vitro. Unlike western blot which was used to generate data shown in FIG. 2, here a pre-beta HDL ELISA assay was used to measure pre-beta HDL levels. Results from the assay are shown in Table 1, which lists the peptides in the order of their activities in remodeling HDL.
(In general: In an ELISA, binding on a coated surface is turned into a signal by an enzyme label.)
Take “35 (cyclo([dW]L[dW]R[dE]Q[dE][Orn]); SMILES CC(C)C[C@@H]1NC(=O)[C@@H](Cc2c[nH]c3ccccc23)NC(=O)[C@H](CCCN)NC(=O)[C@@H](CCC(=O)O)NC(=O)[C@H](CCC(N)=O)NC(=O)[C@@H](CCC(=O)O)NC(=O)[C@H](CCCNC(=N)N)NC(=O)[C@@H](Cc2c[nH]c3ccccc23)NC1=O) [compound 35]”: the “Pre-beta HDL generated (normalized level)” value is on record as 0.02.

Consider “12 (cyclo([dW]L[dW]H[dE]N[dE]K); SMILES CC(C)C[C@@H]1NC(=O)[C@@H](Cc2c[nH]c3ccccc23)NC(=O)[C@H](CCCCN)NC(=O)[C@@H](CCC(=O)O)NC(=O)[C@H](CC(N)=O)NC(=O)[C@@H](CCC(=O)O)NC(=O)[C@H](Cc2c[nH]cn2)NC(=O)[C@@H](Cc2c[nH]c3ccccc23)NC1=O) [compound 12]”, for which the “Pre-beta HDL generated (normalized level)” value is listed as 0.07.

For the molecule “24 (cyclo([dW]L[dW]H[dE]Q[dE]H); SMILES CC(C)C[C@@H]1NC(=O)[C@@H](Cc2c[nH]c3ccccc23)NC(=O)[C@H](Cc2c[nH]cn2)NC(=O)[C@@H](CCC(=O)O)NC(=O)[C@H](CCC(N)=O)NC(=O)[C@@H](CCC(=O)O)NC(=O)[C@H](Cc2c[nH]cn2)NC(=O)[C@@H](Cc2c[nH]c3ccccc23)NC1=O) [compound 24]”, the “Pre-beta HDL generated (normalized level)” value is given as 0.09.

Regarding “19 (cyclo([dW]L[dW][Orn][dE]N[dE][Orn]); SMILES CC(C)C[C@@H]1NC(=O)[C@@H](Cc2c[nH]c3ccccc23)NC(=O)[C@H](CCCN)NC(=O)[C@@H](CCC(=O)O)NC(=O)[C@H](CC(N)=O)NC(=O)[C@@H](CCC(=O)O)NC(=O)[C@H](CCCN)NC(=O)[C@@H](Cc2c[nH]c3ccccc23)NC1=O) [compound 19]”, the “Pre-beta HDL generated (normalized level)” value stood at 0.36.

For “25 (cyclo([dY]W[dY]K[dS]H[dA]E); SMILES C[C@H]1NC(=O)[C@H](Cc2c[nH]cn2)NC(=O)[C@@H](CO)NC(=O)[C@H](CCCCN)NC(=O)[C@@H](Cc2ccc(O)cc2)NC(=O)[C@H](Cc2c[nH]c3ccccc23)NC(=O)[C@@H](Cc2ccc(O)cc2)NC(=O)[C@H](CCC(=O)O)NC1=O) [compound 25]”, the “Pre-beta HDL generated (normalized level)” value was 0.19.

Turning to “58 (cyclo([d3Pal]L[dW]K[dS]K[dS]K); ring closure inferred) [compound 58]”, the “Pre-beta HDL generated (normalized level)” value stood at 0.27.

In the case of “52 (cyclo([dW]F[dF]Y[dR]H[dH]S); SMILES N=C(N)NCCC[C@H]1NC(=O)[C@H](Cc2ccc(O)cc2)NC(=O)[C@@H](Cc2ccccc2)NC(=O)[C@H](Cc2ccccc2)NC(=O)[C@@H](Cc2c[nH]c3ccccc23)NC(=O)[C@H](CO)NC(=O)[C@@H](Cc2c[nH]cn2)NC(=O)[C@H](Cc2c[nH]cn2)NC1=O) [compound 52]”, the “Pre-beta HDL generated (normalized level)” value was 0.52.

For the molecule `CC(C)C[C@@H]1NC(=O)[C@@H](Cc2c[nH]c3ccccc23)NC(=O)[C@H](CCCN)NC(=O)[C@@H](CO)NC(=O)[C@H](CCC(N)=O)NC(=O)[C@@H](CCC(=O)O)NC(=O)[C@H](CO)NC(=O)[C@@H](Cc2c[nH]c3ccccc23)NC1=O` [SEQ ID NO:4, c[wLwSeQsO]] (cyclo([dW]L[dW]S[dE]Q[dS][Orn])), the “Pre-beta HDL generated (normalized level)” value is given as 0.59.

Take “65 (cyclo([dY]G[dW]W[dN]N[dK]N); SMILES NCCCC[C@H]1NC(=O)[C@H](CC(N)=O)NC(=O)[C@@H](CC(N)=O)NC(=O)[C@H](Cc2c[nH]c3ccccc23)NC(=O)[C@@H](Cc2c[nH]c3ccccc23)NC(=O)CNC(=O)[C@@H](Cc2ccc(O)cc2)NC(=O)[C@H](CC(N)=O)NC1=O) [compound 65]”: the “Pre-beta HDL generated (normalized level)” value is 0.11.

Take “w(Aoc)wReQeR (cyclo([dW][Aoc(2)][dW]R[dE]Q[dE]R); ring closure inferred) [SEQ ID NO:31]”: the “Pre-beta HDL generated (normalized level)” value stood at 0.04.

Regarding “w(Nal)wReQeR (cyclo([dW][1Nal][dW]R[dE]Q[dE]R); ring closure inferred) [SEQ ID NO:28]”, the “Pre-beta HDL generated (normalized level)” value came to 0.35.

Consider “78 (cyclo([dY]L[dW]K[dK]K); SMILES CC(C)C[C@@H]1NC(=O)[C@@H](Cc2ccc(O)cc2)NC(=O)[C@H](CCCCN)NC(=O)[C@@H](CCCCN)NC(=O)[C@H](CCCCN)NC(=O)[C@@H](Cc2c[nH]c3ccccc23)NC1=O) [compound 78]”, for which the “Pre-beta HDL generated (normalized level)” value worked out at 0.01.

On to “60 (cyclo([dW][2Nal][dK]S[dK]S[dK]S); ring closure inferred) [compound 60]”, for which the “Pre-beta HDL generated (normalized level)” value is recorded as 0.20.

Regarding “75 (cyclo([dW]L[dW][Dap][dE]Q[dE]K); ring closure inferred) [compound 75]”, the “Pre-beta HDL generated (normalized level)” value turned out to be 0.03.

The test system of another data set is mouse macrophage J774 cells. As to the kind of experiment: cholesterol efflux from mouse macrophage cells incubated with peptide-treated human plasma. It counts as cell-based. The following applies: J774 cells in the efflux assay. The method, then: Selected cyclic D,L-α-peptides were further evaluated for their ability to promote cellular cholesterol efflux from mouse macrophage J774 cells. A main factor for HDL anti-atherogenicity is its role in reverse cholesterol transport, of which cellular cholesterol efflux is a critical component. To measure efflux mediated by the cyclic D,L-α-peptides, cholesterol-laden cells were incubated with peptide-treated plasma for 4 h, after which the level of cholesterol effluxed to the media was measured as described in Sankaranarayanan et al., J. Lipid Res. 52, 2332-2340, 2011.
Preparation of labeling medium: These procedures were modified from that reported in Sankaranarayanan et al., J. Lipid Res. 52, 2332-2340, 2011. The labeling medium was prepared by complexing the unlabeled cholesterol and BODIPY-cholesterol (20% of the total cholesterol) with methyl-β-cyclodextrin (CD) at a molar ratio of 1:40 (total cholesterol/CD). Unlabeled cholesterol and BODIPY-cholesterol were dissolved in chloroform and dried in a round bottom flask by rotor-evaporation in the dark to form a thin film. The cholesterol mixture was solubilized by adding 20 mM CD in MEM-HEPES buffer. The suspension was sonicated in a water bath (37° C.) for at 1 h, stirred at 37° C. for 3 h, filtered using a 0.45-μm syringe filter, and diluted with an equal volume of MEM-HEPES buffer containing 4 μg/mL Sandoz ACAT (acyl-CoA:cholesterol acyltransferase) inhibitor (Sigma). The final concentrations of BODIPY-cholesterol, unlabeled cholesterol, CD, and ACAT inhibitor in the labeling medium were 0.025 mM, 0.1 mM, 10 mM, and […], respectively.
Preparation of efflux medium: Just before the initiation of the efflux assays, the human plasma frozen at −80° C. was thawed, and 80 μL of plasma was incubated with 20 μL of cyclic peptide stocks (peptide stocks were 1-3 mg/mL in 10% sucrose) or the vehicle (10% sucrose) at 37° C. for 30 min. The treated plasma samples (100 μL) were then incubated with 25% PEG 8000 solution in 200 mM glycine buffer, pH 8.5 (40 μL) to precipitate apoB-containing lipoproteins (Asztalos et al., J. Lipid Res. 46, 2246-2253, 2005). After a 15-min incubation, the precipitate was removed by high-speed centrifugation (13,000 rpm, 10 min, 4° C.), and the supernatant (60 μL) was immediately diluted with MEM-HEPES buffer (1.5 mL) to give ˜2% whole plasma. This solution, containing the peptide remodeled-HDL lipoprotein fraction as cholesterol acceptors, was used as the efflux medium.
Cholesterol efflux from mouse macrophage cells: Mouse macrophage J774A.1 cells (TIB-67; American Type Culture Collection, Manassas, Va.) were seeded in 12-well culture plate at 3×10^5 cells/mL and cultured to 80-90% confluency in DMEM with 10% FBS at 5% CO2. Cells were rinsed twice with MEM-HEPES, incubated for 1 h with 0.25 ml of labeling medium containing CD/BODIPY-cholesterol/unlabeled cholesterol and 2 μg/mL Sandoz ACAT inhibitor, followed by washing twice with MEM-HEPES. The cholesterol-laden cells were equilibrated for 18 h in DMEM containing 5% LPDS, […] Sandoz ACAT inhibitor, and 0.3 mM Cpt-cAMP. After equilibration, the cells were washed twice with MEM-HEPES and incubated with 0.25 mL of efflux media for 4 h. At the end of the incubation time, the efflux media was removed and centrifuged (1200 rpm, 10 min) to remove floating cells, and the fluorescence intensity of 100 μL cell-free media was recorded using a Tecan GENios plate reader (excitation 485 nm, emission 535 nm). The obtained signals were background subtracted using the signal from unlabeled cells. The cell monolayers were rinsed twice with ice-cold MEM-HEPES and solubilized with 0.25 mL 1% cholic acid by shaking on a plate shaker for at least 4 h at room temperature; then the fluorescence intensity of 100 μL cell lysate was recorded and background subtracted using the signal from unlabeled cell lysate. […]
`CC(C)C[C@@H]1NC(=O)[C@@H](Cc2c[nH]c3ccccc23)NC(=O)[C@H](CCCN)NC(=O)[C@@H](CO)NC(=O)[C@H](CCC(N)=O)NC(=O)[C@@H](CCC(=O)O)NC(=O)[C@H](CO)NC(=O)[C@@H](Cc2c[nH]c3ccccc23)NC1=O` [SEQ ID NO:4, c[wLwSeQsO]] (cyclo([dW]L[dW]S[dE]Q[dS][Orn])): the “toxicity based on the cellular morphology and density” value was “did not appear to be toxic”.

Staying with this data set, now noted: J774 cells, 2% apoB-depleted peptide-treated human plasma, 4 h; FIG. 2b.
Turning to `CC(C)C[C@@H]1NC(=O)[C@@H](Cc2c[nH]c3ccccc23)NC(=O)[C@H](CCCN)NC(=O)[C@@H](CO)NC(=O)[C@H](CCC(N)=O)NC(=O)[C@@H](CCC(=O)O)NC(=O)[C@H](CO)NC(=O)[C@@H](Cc2c[nH]c3ccccc23)NC1=O` [SEQ ID NO:4, c[wLwSeQsO]] (cyclo([dW]L[dW]S[dE]Q[dS][Orn])), the “promotion of cellular cholesterol efflux (in words)” value is on record as “only marginally less effective than the α-helical apoA-I mimetic 4F”.
